In US20230265048A1, “NOVEL SPHINGOLIPID CONTAINING BRANCHED-CHAIN FATTY ACID AND USE THEREOF” (SOLUS BIOTECH CO., LTD., priority 2020, published 2023):

Assays:
[1] = Test Example 3: Solubility in oils and polyols; assay type: physicochemical; set-up: key: −: Non-soluble; +: Soluble (recrystallization occurred after cooling to room temperature); ++: Very soluble (recrystallization did not occur after cooling to room temperature); conditions: heated at 80° C., cooled to room temperature
Method: The ceramides of Example 4, Comparative Example 1, and Comparative Example 2 were mixed with oils and polyols at 0.1 to 1.0 wt % relative to the solvent substance, and then heated with stirring at 80° C. and then cooled to room temperature.

[2] = test system: skin erythema index on the cheek area; assay: Test Example 6: erythema relieving effect (Mexameter MX 18); assay type: in vivo, human
Method: The branched chain fatty acid ceramide-containing formulation prepared in Example 6 was clinically tested for erythema relieving effect. Specifically, for erythema measurement, a total of 10 test subjects were subjected to application of the branched chain fatty acid ceramide-containing formulation prepared in Example 6 twice a day, and measured before use (Week 0), 1 week after use, and 2 weeks after use by an instrument. The skin erythema index on the cheek area was measured using Mexameter MX 18 of Courage+Khazaka (C-K) (Cologne, Germany).

Solubility ([1]; Butylene glycol, 0.1%): +
Solubility ([1]; Butylene glycol, 0.5%): +
Solubility ([1]; Caprylic/capric triglyceride, 0.1%): −
Solubility ([1]; Caprylic/capric triglyceride, 0.5%): −
Solubility ([1]; Cetyl ethyl hexanoate, 0.1%): −
Solubility ([1]; Cetyl ethyl hexanoate, 0.5%): −
Solubility ([1]; Dipropylene glycol, 0.1%): +
Solubility ([1]; Dipropylene glycol, 0.5%): −
Solubility ([1]; Glycerin, 0.1%): −
Solubility ([1]; Glycerin, 0.5%): −
Solubility ([1]; Macadamia ternifolisa seed oil, 0.1%): −
Solubility ([1]; Macadamia ternifolisa seed oil, 0.5%): −
Solubility ([1]; Propylene glycol, 0.1%): −
Solubility ([1]; Propylene glycol, 0.5%): −
SMILES: CCCCCCCC/C=C\CCCCCCCC(=O)N[C@@H](CO)[C@H](O)/C=C/CCCCCCCCCCCCC [Comparative Example 2, Oleoyl ceramide, reference compound]
Erythema (skin erythema index) ([2]; Week 0 (before use)): 261.53 ± 10.82
Erythema (skin erythema index) ([2]; Week 1, applied twice a day): 236.2 ± 11.578
Erythema (skin erythema index) ([2]; Week 2, applied twice a day): 213.47 ± 11.518
